Assays:
[1] = test system: ACAT; conditions: ACAT1 vs ACAT2; cited from earlier work
[2] = tested in humans; cited from earlier work
[3] = test system: quadruple knock-out strain cultures harboring vector with either DGAT1 or LacZ gene; experiment: Growth of quadruple knock-out yeast expressing DGAT1 or LacZ on solid medium supplemented with fatty acids; assay type: cell-based, Saccharomyces cerevisiae; conditions: for selectivity of the media at lowered concentration: 0.5 mM fatty acid; for suitability for selection: 0.5 mM (500 μM) fatty acid; for growth of DGAT1 and LacZ cultures: 1 mM fatty acid
Method: (A) Plates of YNBG with and without supplement of 1 mM of oleic acid (C18:1) dissolved in ethanol. The plate without FA contained the same volume of ethanol only. (B) Plates of YNBG supplemented with 1 mM of palmitoleic (16:1^cisΔ9), linoleic (18:2^cisΔ9,12), α-linolenic (C18:3), docosahexaenoic (C22:6), ricinoleic (C18:1 OH), erucic (C22:1) and 0.5 mM of palmitic (C16:0) and stearic (C18:0) acids. The FAs were dissolved in ethanol at 0.5M or 0.25M and added to the YNBG prior to plating. (C) Plates supplemented with oleic, α-linolenic and docosahexaenoic acids at the final concentrations indicated. (D) Selection of yeast cells in medium with FA after transformation. H1246 cells were transformed with 1 μg of pYESBnDGAT1 (column 1), 1 μg of pYESLacZ (column 2) and 0.1 μg of pYESBnDGAT1 mixed with 0.9 μg of pYESLacZ (column 3). After transformation, yeast cells were recovered in liquid YNBD medium for 6 hours, inoculated in YNBG plates with or without supplement of 1 mM oleic acid and incubated at 30° C. for 6 days.

[4] = test system: S. cerevisiae strain H1246 (quadruple knock-out); experiment: Growth of knock-out yeast in liquid medium supplemented with oleic acid; conditions: growth measured for 72 hours
Method: Oleic acid, dissolved in ethanol at 0.5M, was supplemented to the cultures at the final concentrations indicated. The cultures were incubated at 30 °C, 250 rpm and the growth was monitored for 72 hours.
Three yeast strains (wild type, dga1 knock-out and quadruple knock-out) were transformed with yeast expression vector pYES2.1-TOPO (Invitrogen) containing a cDNA coding for DGAT1 from several oilseed plants (canola, flax or castor bean). The same vector containing the gene coding for the bacterial protein LacZ served as the negative control. Transformed yeast cells were cultivated in 50 mL of uracil drop-out medium supplemented with 2% glucose for 48 hours shaking at 30° C. and 250 rpm. The cells were washed twice with water and inoculated in liquid media supplemented with 2% galactose, 1% raffinose to induce the expression of the recombinant proteins, and different concentrations of free fatty acids (0 to 1000 μM of oleic acid). […] Cell growth was measured for a period of 72 hours.

CC(C)c1cc(C(C)C)c(CC(=O)NS(=O)(=O)Oc2c(C(C)C)cccc2C(C)C)c(C(C)C)c1 [avasimibe]
selectivity among ACAT isoforms [1]: nonselective ACAT inhibitors | efficacy against atherosclerosis [2]: ineffective against atherosclerosis | harm [2]: probably harmful due to ACAT1 inhibition

CCCCCCCC/C=C\CCCCCCCCCCCC(=O)O [erucic, erucic acid]
selectivity of the media at lowered concentration [3]: did not substantially improve the selectivity

CCCCC/C=C\C/C=C\CCCCCCCC(=O)O [linoleic, linoleic acid]
suitability for selection [3]: suitable for selection | growth of DGAT1 and LacZ cultures [3]: inhibited the growth of both cultures

CCCCCCCC/C=C\CCCCCCCC(=O)O [oleic acid]
concentration most effective in distinguishing strains with and without TAG synthase activity [4]: 1000 µM | lowest concentration at which the inhibitory effect on growth was observed ([4]; knock-out strains without recombinant DGAT1): 25 µM | colony formation on solid medium ([3]; 1000 μM oleic acid, five days at 30° C., DGAT1 vs LacZ): only the cells expressing the recombinant DGAT1 formed visible colonies

CCCCCCCCN1CCc2c(C)c(CC(=O)O)c(C)c(NC(=O)C(C)(C)C)c21 [pactimibe]
selectivity among ACAT isoforms [1]: nonselective ACAT inhibitors | efficacy against atherosclerosis [2]: ineffective against atherosclerosis | harm [2]: probably harmful due to ACAT1 inhibition

CCCCCCCCCCCCCCCC(=O)O [palmitic, palmitic acid]
selectivity of the media at lowered concentration [3]: did not substantially improve the selectivity

CCCCCCCCCCCCCCCCCC(=O)O [stearic, stearic acid]
selectivity of the media at lowered concentration [3]: did not substantially improve the selectivity

CC/C=C\C/C=C\C/C=C\CCCCCCCC(=O)O [α-linolenic, α-linolenic acid]
suitability for selection [3]: suitable for selection | growth of DGAT1 and LacZ cultures [3]: inhibited the growth of both cultures
